Seven test systems from the supplement of paper PMC6045584 can be followed below.

± gives the standard deviation of the averaged measurements.

Compound in test [1]: C=CCn1c(=O)c2cnc(Nc3ccc(N4CCN(C)CC4)cc3)nc2n1-c1cccc(C(C)(C)O)n1 [MK-1775]
Nature of the test: surviving fraction relative to DMSO-only wells; higher = less growth inhibition. Particulars: exposure time: 5 days. In a few lines: (§1)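 Inhibitors at 0.5, 1, 5, 10, 50, 100, 500 and 1000 nM were applied continuously for five days to tumour cell lines seeded in log phase at 250–500 cells per well in 384-well plates 24 hours earlier. Viability was measured by CellTiter-Glo luminescence and expressed as surviving fraction relative to the median of DMSO-only wells. Luminescence was taken after 10 minutes at room temperature.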

Compound in test [2]: Cn1ncnc1[C@H]1c2n[nH]c(=O)c3cc(F)cc(c23)N[C@@H]1c1ccc(F)cc1 [BMN-673]
The test is described as above. The settings on record: exposure time: 5 days. In a few lines:
as §1

As for HMT3552 BREAST, the surviving fraction in test [1] (0.5 nM) was found to be 1.05; in test [1] (1 nM) it was 1.02; in test [1] (5 nM) it was 0.977; in test [1] (10 nM) it was 1.01; in test [1] (50 nM), 0.542; in test [1] (100 nM), 0.142. Also, the surviving fraction in test [1] (500 nM) came to 0.069; in test [1] (1000 nM), 0.072; in test [2] (0.5 nM) it was 1.01 ± 0.064; in test [2] (1 nM), 0.943 ± 0.036; in test [2] (5 nM), 0.889 ± 0.047; in test [2] (10 nM), 0.775 ± 0.073. Further, the surviving fraction in test [2] (50 nM) came out at 0.713 ± 0.063; in test [2] (100 nM), 0.574 ± 0.01; in test [2] (500 nM), 0.375 ± 0.026; in test [2] (1000 nM) it was 0.264 ± 0.0075.

For the test system HS578T BREAST, the surviving fraction worked out at 0.828 ± 0.085 in test [1] (0.5 nM); 0.84 ± 0.11 in test [1] (1 nM); 0.872 ± 0.087 in test [1] (5 nM); 0.782 ± 0.1 in test [1] (10 nM); 0.559 ± 0.091 in test [1] (50 nM); 0.354 ± 0.035 in test [1] (100 nM). The surviving fraction in test [1] (500 nM) worked out at 0.204 ± 0.0082; in test [1] (1000 nM), 0.128 ± 0.0087; in test [2] (0.5 nM) it was 1.02 ± 0.035; in test [2] (1 nM), 1.14 ± 0.14; in test [2] (5 nM), 1.05 ± 0.091; in test [2] (10 nM), 0.958 ± 0.12. Also, the surviving fraction in test [2] (50 nM) amounted to 0.902 ± 0.075; in test [2] (100 nM), 0.841 ± 0.043; in test [2] (500 nM), 0.669 ± 0.076; in test [2] (1000 nM), 0.61 ± 0.087.

On to G292 BONE, for which the surviving fraction was determined as 0.974 ± 0.034 in test [1] (0.5 nM); 0.946 ± 0.011 in test [1] (1 nM); 0.997 ± 0.018 in test [1] (5 nM); 1.03 ± 0.02 in test [1] (10 nM); 0.961 ± 0.032 in test [1] (50 nM); 0.821 ± 0.021 in test [1] (100 nM). Further, the surviving fraction in test [1] (500 nM) was 0.289 ± 0.014; in test [1] (1000 nM), 0.216 ± 0.0088; in test [2] (0.5 nM), 1.02 ± 0.058; in test [2] (1 nM), 0.933 ± 0.033; in test [2] (5 nM) it was 0.923 ± 0.041; in test [2] (10 nM) it was 0.846 ± 0.048. Moreover, the surviving fraction in test [2] (50 nM) is 0.732 ± 0.045; in test [2] (100 nM), 0.698 ± 0.016; in test [2] (500 nM), 0.54 ± 0.035; in test [2] (1000 nM), 0.459 ± 0.015.

Consider HCC38 BREAST, for which the surviving fraction was 1.33 ± 0.27 in test [1] (0.5 nM); 1.23 ± 0.048 in test [1] (1 nM); 1.33 ± 0.15 in test [1] (5 nM); 1.16 ± 0.072 in test [1] (10 nM); 0.773 ± 0.24 in test [1] (50 nM); 0.491 ± 0.065 in test [1] (100 nM). The surviving fraction in test [1] (500 nM) came out at 0.0837 ± 0.006; in test [1] (1000 nM), 0.069 ± 0.013; in test [2] (0.5 nM), 1.06 ± 0.11; in test [2] (1 nM) it was 0.92 ± 0.2; in test [2] (5 nM), 0.778 ± 0.14; in test [2] (10 nM), 0.603 ± 0.11. Further, the surviving fraction in test [2] (50 nM) amounted to 0.585 ± 0.084; in test [2] (100 nM), 0.43 ± 0.065; in test [2] (500 nM) it was 0.301 ± 0.046; in test [2] (1000 nM), 0.253 ± 0.031.

HMLE3 BREAST: the surviving fraction in test [1] (0.5 nM) was found to be 0.955 ± 0.013; in test [1] (1 nM), 0.985 ± 0.066; in test [1] (5 nM), 1.04 ± 0.071; in test [1] (10 nM) it was 0.999 ± 0.02; in test [1] (50 nM), 0.992 ± 0.065; in test [1] (100 nM), 0.888 ± 0.061. Moreover, the surviving fraction in test [1] (500 nM) was 0.448 ± 0.058; in test [1] (1000 nM), 0.168 ± 0.026; in test [2] (0.5 nM) it was 1.08 ± 0.048; in test [2] (1 nM) it was 1.11 ± 0.053; in test [2] (5 nM), 1 ± 0.2; in test [2] (10 nM), 0.902 ± 0.1. Moreover, the surviving fraction in test [2] (50 nM) worked out at 0.644 ± 0.035; in test [2] (100 nM), 0.604 ± 0.03; in test [2] (500 nM), 0.339 ± 0.056; in test [2] (1000 nM), 0.277 ± 0.036.

Take CCK81 LARGE INTESTINE: the surviving fraction in test [2] (0.5 nM) is 0.838 ± 0.087; in test [2] (1 nM), 0.781 ± 0.094; in test [2] (5 nM), 0.733 ± 0.091; in test [2] (10 nM), 0.619 ± 0.092; in test [2] (50 nM), 0.54 ± 0.034; in test [2] (100 nM), 0.552 ± 0.03. For the same test system, the surviving fraction in test [2] (500 nM) was found to be 0.493 ± 0.079; in test [2] (1000 nM), 0.406 ± 0.058.

As to HCC70 BREAST, the surviving fraction in test [1] (0.5 nM) stood at 1.03 ± 0.065; in test [1] (1 nM), 1.02 ± 0.067; in test [1] (5 nM), 1.09 ± 0.033; in test [1] (10 nM) it was 1 ± 0.11; in test [1] (50 nM), 0.815 ± 0.062; in test [1] (100 nM), 0.281 ± 0.021. Also, the surviving fraction in test [1] (500 nM) came to 0.073 ± 0.0076; in test [1] (1000 nM) it was 0.0593 ± 0.012; in test [2] (0.5 nM) it was 1.05 ± 0.11; in test [2] (1 nM), 1.05 ± 0.11; in test [2] (5 nM), 1.12 ± 0.069; in test [2] (10 nM), 0.977 ± 0.065. In addition, the surviving fraction in test [2] (50 nM) was determined as 0.789 ± 0.054; in test [2] (100 nM) it was 0.657 ± 0.074; in test [2] (500 nM) it was 0.411 ± 0.1; in test [2] (1000 nM) it was 0.341 ± 0.022.
